Laboratory results reported in ChEMBL document CHEMBL3638874, “Pyrrolopyrimidine compounds and their uses” (2015).

What was measured:
[1] = target: Cyclin-dependent kinase 2 (Homo sapiens, UniProt P24941); experiment: (§1) IMAP-FPT (Molecular Devices Trade Mark Technology) Endpoint Assay: The assay was run under the conditions identical to that for CDK1/cyclin B except 0.25 nM CDK1/cyclin B was replaced with 0.3 nM CDK2/cyclin A. A 384-well microtiter IMAP-FPT (Molecular Devices Trade Mark Technology) endpoint assay was used for CDK1/cyclin B kinase activity measurements. The same assay was used for IC50 determination of small molecule inhibitors. In general, the kinase reactions were carried out in 20 μL volumes in the reaction solution, which is composed of 2 μL compound (in 20% DMSO), 8 μL CDK1/cyclin B in the 1× Reaction Buffer (Molecular Devices, Cat. No. R8139), 10 μL substrate mixture of Tamra Histone-H1 peptide (Molecular Devices, Cat. No. R7384) and ATP (Amersham Pharmacia, Cat. No. 27-2056-01) in the 1× Reaction Buffer with 1 mM DTT freshly added. The final reaction mixture contains compound (inhibitor) with the concentration varying from 0.005-10 μM, 2% DMSO, 0.25 nM CDK1/cyclin B, 100 nM Tamra Histone-H1 peptide, and 20 μM ATP.
[2] = target: Cyclin-dependent kinase 1 (Homo sapiens, UniProt P06493); experiment: as §1, with “Assay:” for “Assay: The assay was run under the conditions identical to that for CDK1/cyclin B except 0.25 nM CDK1/cyclin B was replaced with 0.3 nM CDK2/cyclin A.”, “uL” for “μL”, “1x” for “1×”, “uM,” for “μM,”, “uM ATP.All reactions were run at room temperature in black 384-well flat-bottom Costar plates (Corning, Cat. No. 3710) for 120 min then were quenched.” for “μM ATP.”
Chain of Cyclin-dependent kinase 1 (P06493 whole entry): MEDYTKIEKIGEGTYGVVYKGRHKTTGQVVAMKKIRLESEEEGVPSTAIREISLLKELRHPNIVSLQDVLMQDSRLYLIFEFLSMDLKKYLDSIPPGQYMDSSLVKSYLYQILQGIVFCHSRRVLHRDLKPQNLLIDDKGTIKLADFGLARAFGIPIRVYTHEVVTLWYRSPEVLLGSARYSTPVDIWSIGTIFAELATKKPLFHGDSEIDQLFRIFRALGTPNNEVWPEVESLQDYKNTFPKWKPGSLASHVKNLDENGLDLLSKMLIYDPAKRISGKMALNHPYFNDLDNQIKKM

IC50 [1]: > 15 µM
IC50 [2]: > 15 µM
SMILES: CN(C)C(=O)c1cc2cnc(Nc3ccc(N4CCNCC4=O)cn3)nc2n1C1CCCC1
